Test results reported in patent US8617540B2, “Combinational chemotherapy treatment” (Fox Chase Cancer Center, priority 2009, dated 2013).
Where two headings read alike, the source gives them in different places.

Columns and labels:
HT-29 colon cancer cells = test: Cell growth assay (WST-1), combination analysed with CombiTool; type: cell-based; details: for synergistic activity on growth inhibition in combination with HmdU: 5-FU related compound used with HmdU; for synergistic activity on growth inhibition when combined with 5-FU: HmdU related drug combined with 5-FU
Experimental: In a typical cell growth assay, cells were plated in 96-well plates on Day 0, and indicated concentrations of drugs were added on Day 1. Each condition was replicated in triplicate. Subsequently, quantities of metabolically active cells in each well were measured by WST-1 assay on Day 4. The WST-1 assay (assay reagents from Roche) measures the concentration of formazan converted from a tetrazolium salt, WST-1, by a mitochondrial succinate-tetrazolium-reductase system.
CombiTool is a computer program for the analysis of combination effects of biologically active agents and is described in Dressler et al. (Computers and Biomedical Research (1999) 32:145-160). It performs model calculations and an analysis of experimental combination effects for two or three agents according to both the Bliss independence and the Loewe additivity criteria. Zero interaction response surfaces are calculated from single-agent dose-response relations and compared to experimental combination data. The calculation of response surfaces for Loewe additivity is based on a new approach which combines the implicit definition equation in terms of doses alone with single-agent dose-response relations. CombiTool has a built-in graphics facility which allows for the direct visualization of the response surfaces or the corresponding contour plots and the experimental data.
In the present example, the in vitro effects of 5-FU and HmdU treatment were assessed in several cell lines. […] FIG. 1B show the results interpreted with the CombiTool program which indicates synergistic experimental data by large gray circles above the lower additive results when the drugs are used alone. […] FIGS. 1C and 1D show similar results from experiments in the colon cancel cell line, HCT116.
Further testing was performed on the HT-29 cell line to assess whether compounds that are structurally and/or functionally related to 5-FU and HmdU also display synergistic activity on growth inhibition. In a series of experiments 5-FU was tested with: (1) 5-Hydroxymethyluracil (HmU), a base form which is subsequently converted to a nucleoside form, HmdUrd; (2) Deoxyuridine (dUrd), a nucleoside which is different from HmdU by the lack of modification at the 5-carbon position; and (3) 5-Hydroxydeoxyuridine (OHdU), a nucleoside which is different from HmdU by the lack of a methyl group in the 5-carbon modification. […] See FIG. 7A-7D (HmU—obtained from Cayman Chemical and Aldrich Chemical Company, respectively+5FU), FIG. 8A-8B (dUrd+5FU), and FIG. 9A-9B (OHdU+5FU).
Another set of experiments tested several alternative 5-FU agents in combination with HmdU to determine if synergy exists when the agents were administered in combination. The 5-FU related compounds used with HmdU were: (1) 5-Fluorodeoxyuridine (5-FdU), a deoxyribonucleoside (2) Deoxyadenosine (dA), an agent capable of decreasing dTTP; and (3) Raltitrexed, a structural analog of 5,10-methylene tetrahydrofolate (CH2THF), and a specific inhibitor of thymidylate synthase (TS). […] See FIGS. 11 (dA) and 12 (Raltitrexed).

HT-29 cells = test: Cell cycle analysis of synchronized cells; type: cell-based; details: 48 h of treatment with 5-FU and HmdU
Experimental: Panel A is a cell cycle analysis of synchronized HT-29 cells with 5-FU, HmdU, and combined 5-FU/HmdU treatment over a period of two days.
First, clonogenic assays were performed to determine the time course of the combination of 5-FU and HmdU. […] Subsequently, cell cycle distribution was assessed.

HT-29 = test: Caspase inhibitor rescue from cell killing by 5-FU and HmdU; type: cell-based; details: caspase inhibitor added
Experimental: Further, experiments were performed to uncover whether the combined treatment with 5-FU and HmdU induces PARP1 cleavage, which would indicate that apoptosis is the pathway responsible for the cytotoxic effects. […] Both of the results in FIGS. 17 and 18 indicate that the cell killing by the combined drug treatment is not via apoptosis. However, the combination has a synergistic effect on the cytotoxicities of 5-FU and HmdU, and derivatives thereof.

[1] = tested on: cells treated with 5-FU and HmdU; test: Effect of PARP-1 inhibitors on cytotoxicity of 5-FU and HmdU; details: PARP-1 inhibitor added
Text: (§1) Taking account of effect of 3-aminobenzamide on cell cycle shown FIG. 14B, effects of PARP-1 inhibitors on cytotoxicity were examined.

[2] = tested on: cells treated with 5-FU and HmdU
Text: as §1

## O=c1[nH]c(=O)n([C@H]2C[C@H](O)[C@@H](CO)O2)cc1F [5-FdU, 5-Fluorodeoxyuridine]
HT-29 colon cancer cells
  synergistic activity on growth inhibition in combination with HmdU: strong synergy

## O=c1[nH]c(=O)n([C@H]2C[C@H](O)[C@@H](CO)O2)cc1O [OHdU, 5-Hydroxydeoxyuridine]
HT-29 colon cancer cells
  synergistic activity on growth inhibition when combined with 5-FU: did not show any significant synergistic effects

## O=c1ccn([C@H]2C[C@H](O)[C@@H](CO)O2)c(=O)[nH]1 [dUrd, Deoxyuridine]
HT-29 colon cancer cells
  synergistic activity on growth inhibition when combined with 5-FU: did not show any significant synergistic effects

## Cn1c(=O)c2c(ncn2C)n(C)c1=O [caffeine]
HT-29 cells
  effect of added agent on the cell cycle: overcomes G2/M arrest

## Cc1nc2ccc(CN(C)c3ccc(C(=O)N[C@@H](CCC(=O)O)C(=O)O)s3)cc2c(=O)[nH]1 [Raltitrexed]
HT-29 colon cancer cells
  synergistic activity on growth inhibition in combination with HmdU: did not show any significant synergistic effects

## CC(C)[C@H](NC(=O)c1ccc2ccccc2n1)C(=O)N[C@@H](CC(=O)O)C(=O)COc1c(F)cccc1F [QVD]
HT-29
  rescue from cell killing by the 5-FU and HmdU treatment: did not rescue

## NC(=O)c1cccc(N)c1 [3-aminobenzamide]
HT-29 cells
  effect of added agent on the cell cycle: allows cells to complete DNA replication
[1]
  effect on growth inhibition by 5-FU and HmdU: rescued cells from growth inhibition

## O=c1[nH]cc(CO)c(=O)[nH]1 [HmU, 5-Hydroxymethyluracil]
HT-29 colon cancer cells
  synergistic activity on growth inhibition when combined with 5-FU: did not show any significant synergistic effects

## Nc1ccc2c3c(cccc13)C(=O)NC2=O [4-amino-1,8-naphtalimide]
[2]
  effect on growth inhibition by 5-FU and HmdU: rescued cells from growth inhibition

## Nc1ncnc2c1ncn2[C@H]1C[C@H](O)[C@@H](CO)O1 [dA, Deoxyadenosine]
HT-29 colon cancer cells
  synergistic activity on growth inhibition in combination with HmdU: did not show any significant synergistic effects
